Experimental findings from PubChem BioAssay (NCI) are described below.

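Five concentrations, 48 hours, 96-well plates. The concentration for 50% growth inhibition is given as GI50. TGI: total growth inhibition.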

Holding throughout (test): DTP human tumour cell line panel, 48 h
The test system of assay [1] is DU-145 prostate.
In assay [2] the test system is HCT-15 colon.
Assay [3] deals with KM12 colon.
For assay [4], the system named is MDA-MB-231 breast.
In assay [5] the test system is NCI-H460 lung.
The test system of assay [6] is NCI/ADR-RES ovarian.
In assay [7] the test system is OVCAR-4 ovarian.
The subject of assay [8] is SN12C renal.
Assay [9] has as its system T-47D breast.
For assay [10], the system named is UO-31 renal.

For orientation: GI50 means the concentration that inhibits growth by half. As usually defined, the TGI is the concentration giving total growth inhibition. With `C[C@]12CC[C@H]3[C@@H](CCC4=CC(=O)CC[C@@H]43)[C@@H]1CC[C@@H]2OC(=O)CCc1ccccc1`, the GI50 is 15.6 µM in [1]; 24.6 µM in assay [2]; 19.8 µM in assay [3]; 18.9 µM in assay [4]; 17.1 µM in assay [5]; 19.1 µM in assay [6]. Besides, the GI50 in assay [7] is 18.8 µM; in [8], 15.2 µM; in assay [9] it was 21.8 µM; in assay [10], 18.6 µM. Besides, the TGI is 32.5 µM in assay [1]; > 89.7 µM in assay [2]; 43 µM in [3]; 42.2 µM in assay [4]; 35.6 µM in [5]; 40.9 µM in [6]. The concentration for total growth inhibition (TGI) is 40.4 µM in assay [7], 29.7 µM in [8], 66.6 µM in [9] and 39.2 µM in assay [10].

Take `CC(CN1CCN(CCOCCO)CC1)CN1c2ccccc2Sc2ccc(Cl)cc21` (centres undefined): the GI50 was 5.05 µM in [1]; 1.85 µM in assay [2]; 2.78 µM in assay [3]; 1.86 µM in [4]; 2.36 µM in assay [5]; 4.39 µM in assay [6]. For the same compound, the GI50 in assay [7] is 4.22 µM; in [8], 3.86 µM; in assay [9], 6.22 µM; in assay [10], 3.3 µM. Besides, the concentration for total growth inhibition (TGI) in [1] stood at 17 µM; in assay [2], 3.76 µM; in assay [3], 8.21 µM; in assay [4], 4.79 µM; in assay [5], 5.35 µM; in assay [6], 18.1 µM. The TGI in [7] is 16 µM; in assay [8] it was 17.1 µM; in [9], 22.6 µM; in assay [10], 16.4 µM.

On to `O[C@H]1CO[C@H]2[C@@H]1OC[C@@H]2Oc1ccc(Nc2ccnc(Nc3ccc(O[C@H]4CO[C@H]5[C@@H]4OC[C@@H]5O)c(Cl)c3)n2)cc1Cl`, for which the GI50 in assay [1] was 1.56 µM; in assay [2] it was 2.32 µM; in [3], 1.36 µM; in assay [4] it was 1.81 µM; in assay [5], 1.4 µM; in [6], 5.82 µM. Besides, the GI50 in assay [7] was 1.54 µM; in assay [8], 1.59 µM; in assay [9], 0.456 µM; in assay [10] it was 1.55 µM. Further, the TGI in [1] is 4.19 µM; in [2], 6.6 µM; in assay [3] it was 3.48 µM; in [4] it was 6.04 µM; in assay [5], 3.05 µM; in assay [6], > 100 µM. Also, the TGI came to 5.24 µM in assay [7], 6.15 µM in [8], 2.89 µM in assay [9] and 3.06 µM in [10].

On to `CN(C)c1ccc(/C=C\c2cccc[n+]2C)cc1`, for which the GI50 in assay [1] is 20.6 µM; in assay [2] it was 92.8 µM; in assay [3], 0.821 µM; in assay [4], 13.7 µM; in assay [5] it was 15.2 µM; in assay [6], > 100 µM. Moreover, the GI50 was 4.28 µM in [7], 17 µM in [8], 4.37 µM in assay [9] and 6.43 µM in assay [10]. Further, the TGI is > 100 µM in assay [1]; > 100 µM in assay [2]; 13.4 µM in [3]; 93.2 µM in assay [4]; > 100 µM in assay [5]; > 100 µM in [6]. In addition, the TGI in assay [7] was 62.5 µM; in assay [8] it was > 100 µM; in [9], 65.5 µM; in assay [10], > 100 µM.

On to `COc1cc2c(c(OC)c1OC)-c1ncc3cc(OC)c(OC)c(OC)c3c1C2`, for which the GI50 was 26.6 µM in assay [1]; 23.4 µM in assay [2]; 17.8 µM in assay [3]; 21.3 µM in assay [4]; 30 µM in assay [5]; 12.1 µM in assay [6]. Further, the GI50 in [7] was 44.5 µM; in [8], 17.6 µM; in assay [9], 50.4 µM; in assay [10], 20.2 µM. The concentration for total growth inhibition (TGI) in assay [1] was > 100 µM; in assay [2], 83.5 µM; in [3], 63 µM; in assay [4], 70.8 µM; in assay [5] it was 78.2 µM; in assay [6], 51.2 µM. Moreover, the TGI in assay [7] is > 100 µM; in assay [8], 73.7 µM; in assay [9] it was > 100 µM; in assay [10] it was > 100 µM.

In the case of `C/C(=N\Nc1ccc2ccccc2n1)c1ccccn1`, the 50% growth inhibitory concentration (GI50) in assay [1] is 0.107 µM; in assay [3], 0.115 µM; in [4] it was < 0.042 µM; in [5], < 0.0507 µM; in assay [6], 0.0653 µM; in [7] it was < 0.0204 µM. The GI50 in assay [8] was 0.0914 µM; in assay [9], < 0.0332 µM; in [10], < 0.0395 µM. The concentration for total growth inhibition (TGI) was 5.25 µM in [1]; 5.72 µM in [2]; 9.12 µM in [3]; 4.06 µM in [4]; 3.71 µM in assay [5]; 7.19 µM in [6]. Besides, the TGI in assay [7] came to 33.5 µM; in [8], 14.9 µM; in assay [9], 3.2 µM; in assay [10] it was 0.676 µM.
